Reference: PubChem BioAssay (NCI)
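In this assay, cells in 96-well plates receive the compound at five concentrations for 48 hours. Endpoints are linearly interpolated between the surrounding concentrations. At the GI50, growth is halved. At the TGI there is no net growth.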

Assays:
Assay in all cases: NCI-60 cell line screen, 48 h
[1] = test system: 786-0 renal
[2] = test system: A498 renal
[3] = test system: A549 NSCLC
[4] = test system: ACHN renal
[5] = test system: BT-549 breast
[6] = test system: CAKI-1 renal
[7] = test system: CCRF-CEM leukemia
[8] = test system: COLO 205 colon
[9] = test system: DU-145 prostate
[10] = test system: EKVX NSCLC
[11] = test system: HCC-2998 colon
[12] = test system: HCT-116 colon
[13] = test system: HCT-15 colon
[14] = test system: HL-60(TB) leukemia
[15] = test system: HOP-62 NSCLC
[16] = test system: HOP-92 NSCLC
[17] = test system: HS 578T breast
[18] = test system: HT29 colon
[19] = test system: IGROV1 ovarian
[20] = test system: K-562 leukemia
[21] = test system: KM12 colon
[22] = test system: LOX IMVI melanoma
[23] = test system: M14 melanoma
[24] = test system: MALME-3M melanoma
[25] = test system: MCF7 breast
[26] = test system: MDA-MB-231 breast
[27] = test system: MDA-MB-435
[28] = test system: MDA-MB-468 breast
[29] = test system: MOLT-4 leukemia
[30] = test system: NCI-H226 lung
[31] = test system: NCI-H23 lung
[32] = test system: NCI-H460 lung
[33] = test system: NCI-H522 lung
[34] = test system: NCI/ADR-RES ovarian
[35] = test system: OVCAR-3 ovarian
[36] = test system: OVCAR-4 ovarian
[37] = test system: OVCAR-5 ovarian
[38] = test system: OVCAR-8 ovarian
[39] = test system: PC-3 prostate
[40] = test system: RPMI-8226 leukemia
[41] = test system: RXF 393 renal
[42] = test system: SF-268 CNS
[43] = test system: SF-295 CNS
[44] = test system: SF-539 CNS
[45] = test system: SK-MEL-2 melanoma
[46] = test system: SK-MEL-28 melanoma
[47] = test system: SK-MEL-5 melanoma
[48] = test system: SK-OV-3 ovarian
[49] = test system: SN12C renal
[50] = test system: SNB-19 CNS
[51] = test system: SNB-75 CNS
[52] = test system: SR leukemia
[53] = test system: SW-620 colon
[54] = test system: T-47D breast
[55] = test system: TK-10 renal
[56] = test system: U251 CNS
[57] = test system: UACC-257 melanoma
[58] = test system: UACC-62 melanoma
[59] = test system: UO-31 renal

C=C1CCC2C3(C)COC(c4ccc(F)cc4)OC3CCC2(C)C1C/C=C1/C(=O)OCC1O (configuration not stated)
GI50 [1]: 1.74 µM | TGI [1]: 3.15 µM | GI50 [2]: 13.7 µM | TGI [2]: 27 µM | GI50 [3]: 3.07 µM | TGI [3]: 13.1 µM | GI50 [4]: 1.69 µM | TGI [4]: 3.06 µM | GI50 [5]: 1.65 µM | TGI [5]: 3.19 µM | GI50 [6]: 3.06 µM | TGI [6]: 11.5 µM | GI50 [7]: 1.24 µM | TGI [7]: 5.2 µM | GI50 [8]: 1.86 µM | TGI [8]: 3.47 µM | GI50 [9]: 3.86 µM | TGI [9]: 13.8 µM | GI50 [10]: 4.57 µM | TGI [10]: 17.2 µM | GI50 [11]: 2.67 µM | TGI [11]: 8.69 µM | GI50 [12]: 1.42 µM | TGI [12]: 2.74 µM | GI50 [13]: 1.41 µM | TGI [13]: 3.24 µM | GI50 [14]: 1.74 µM | TGI [14]: 4.93 µM | GI50 [15]: 10.7 µM | TGI [15]: 22.9 µM | GI50 [16]: 2.17 µM | TGI [16]: 6.46 µM | GI50 [17]: 2.7 µM | TGI [17]: 9.69 µM | GI50 [18]: 1.78 µM | TGI [18]: 3.85 µM | GI50 [19]: 2.78 µM | TGI [19]: 10.1 µM | GI50 [20]: 2.09 µM | GI50 [21]: 2.81 µM | TGI [21]: 7.72 µM | GI50 [22]: 1.5 µM | TGI [22]: 2.83 µM | GI50 [23]: 2.2 µM | TGI [23]: 5.92 µM | GI50 [24]: 2.06 µM | TGI [24]: 5.16 µM | GI50 [25]: 1.1 µM | TGI [25]: 2.88 µM | GI50 [26]: 1.92 µM | TGI [26]: 4.03 µM | GI50 [27]: 1.84 µM | TGI [27]: 4.48 µM | GI50 [28]: 1.67 µM | TGI [28]: 3.21 µM | GI50 [29]: 2.79 µM | TGI [29]: 8.13 µM | GI50 [30]: 1.81 µM | TGI [30]: 3.58 µM | GI50 [31]: 3.08 µM | TGI [31]: 11.5 µM | GI50 [32]: 2.02 µM | TGI [32]: 5.48 µM | GI50 [33]: 1.45 µM | TGI [33]: 2.91 µM | GI50 [34]: 1.67 µM | TGI [34]: 3.55 µM | GI50 [35]: 1.83 µM | TGI [35]: 3.6 µM | GI50 [36]: 2.11 µM | TGI [36]: 5.9 µM | GI50 [37]: 2.01 µM | TGI [37]: 4.9 µM | GI50 [38]: 1.54 µM | TGI [38]: 3.4 µM | GI50 [39]: 2.19 µM | TGI [39]: 5.92 µM | GI50 [40]: 1.83 µM | TGI [40]: 5.05 µM | GI50 [41]: 2.41 µM | TGI [41]: 6.54 µM | GI50 [42]: 3.53 µM | TGI [42]: 14.4 µM | GI50 [43]: 1.87 µM | TGI [43]: 4.64 µM | GI50 [44]: 1.76 µM | TGI [44]: 3.16 µM | GI50 [45]: 1.89 µM | TGI [45]: 3.89 µM | GI50 [46]: 1.94 µM | TGI [46]: 4.02 µM | GI50 [47]: 2.73 µM | TGI [47]: 8.58 µM | GI50 [48]: 14.4 µM | TGI [48]: 27.8 µM | GI50 [49]: 1.48 µM | TGI [49]: 3.18 µM | GI50 [50]: 4.84 µM | TGI [50]: 16.9 µM | GI50 [51]: 1.58 µM | TGI [51]: 7.57 µM | GI50 [52]: 2.44 µM | TGI [52]: 6.51 µM | GI50 [53]: 1.25 µM | TGI [53]: 2.71 µM | GI50 [54]: 2.14 µM | TGI [54]: 9.87 µM | GI50 [55]: 3.85 µM | TGI [55]: 14.9 µM | GI50 [56]: 1.66 µM | TGI [56]: 3.09 µM | GI50 [57]: 2.04 µM | TGI [57]: 5.28 µM | GI50 [58]: 1.94 µM | TGI [58]: 4.8 µM | GI50 [59]: 1.55 µM | TGI [59]: 3.67 µM
